Measurements reported in patent US20220226348A1, “METHOD AND COMPOSITION FOR TREATMENT OF SKIN DISEASES ASSOCIATED WITH ACCELERATED CORNEODESMOSOMES DEGRADATION OR WEAKER CELL-CELL ADHESION” (ICHILOV TECH LTD, priority 2019, published 2022).

Legend:
corneodesmosin = experiment: Corneodesmosin protein expression by immunoblotting, normalized to β-actin; type: cell-based; details: human primary keratinocytes, immunoblot
Source text: Using a high throughput screening of small molecule libraries, utilizing green fluorescent protein (GFP) base reporter system and western blot analysis for validation of the results, it has now been found, in accordance with the present invention, that betulinic acid (which is already used as topical treatment on human skin, and capable of penetrating into the skin and be active in the epidermis while showing excellent safty profile) is capable of boosting corneodesmosin biosynthesis, and when administered to keratinocytes, it increases corneodesmosin expression by more than 3-fold (FIGS. 1-2), and may thus be used as an inducer of corneodesmosin expression in patients suffering from skin diseases or disorders associated with accelerated corneodesmosomes degradation and/or weaker cell-cell adhesion.
Corneodesmosin protein levels were quantified and normalized to β-actin protein levels and presented as corneodesmosin fold expression relative to normal keratinocytes treated with DMSO. […] The other compounds shown in the figure are 5-aminolevulinic acid hydrochloride (5-ALA; #1), piperlongumine (#2), thiostrepton (#3), obatoclax mesylate (GX15-070; #5), BI 2536 (CAS No.: 755038-02-9; #6), PHA-665752 (CAS No.: 477575-56-7 (anhydrous; #7), YH239-EE (CAS No.: 1364488-67-4; #8), PF-562271 (CAS No.: 717907-75-0; #9), and BI-D1870 (CAS No.: 501437-28-1; #10).

CDSN = CDSN expression at the mRNA level in keratinocytes; type: cell-based

SMILES: C=C(C)[C@@H]1CC[C@]2(C(=O)O)CC[C@]3(C)[C@H](CC[C@@H]4[C@@]5(C)CC[C@H](O)C(C)(C)[C@@H]5CC[C@]43C)[C@@H]12 [betulinic acid]
- corneodesmosin fold expression relative to normal keratinocytes treated with DMSO (corneodesmosin): more than 3 fold
- CDSN expression at the mRNA level relative to DMSO-treated normal keratinocytes (CDSN): 2 fold
